Reference: ChEMBL document CHEMBL5291721, “A preclinical secondary pharmacology resource illuminates target-adverse drug reaction associations of marketed drugs” (Nat Commun, 2023)

What was measured:
Androgen receptor = biological target: T1, Androgen receptor (Homo sapiens, UniProt P10275)
T1 sequence (P10275 whole entry): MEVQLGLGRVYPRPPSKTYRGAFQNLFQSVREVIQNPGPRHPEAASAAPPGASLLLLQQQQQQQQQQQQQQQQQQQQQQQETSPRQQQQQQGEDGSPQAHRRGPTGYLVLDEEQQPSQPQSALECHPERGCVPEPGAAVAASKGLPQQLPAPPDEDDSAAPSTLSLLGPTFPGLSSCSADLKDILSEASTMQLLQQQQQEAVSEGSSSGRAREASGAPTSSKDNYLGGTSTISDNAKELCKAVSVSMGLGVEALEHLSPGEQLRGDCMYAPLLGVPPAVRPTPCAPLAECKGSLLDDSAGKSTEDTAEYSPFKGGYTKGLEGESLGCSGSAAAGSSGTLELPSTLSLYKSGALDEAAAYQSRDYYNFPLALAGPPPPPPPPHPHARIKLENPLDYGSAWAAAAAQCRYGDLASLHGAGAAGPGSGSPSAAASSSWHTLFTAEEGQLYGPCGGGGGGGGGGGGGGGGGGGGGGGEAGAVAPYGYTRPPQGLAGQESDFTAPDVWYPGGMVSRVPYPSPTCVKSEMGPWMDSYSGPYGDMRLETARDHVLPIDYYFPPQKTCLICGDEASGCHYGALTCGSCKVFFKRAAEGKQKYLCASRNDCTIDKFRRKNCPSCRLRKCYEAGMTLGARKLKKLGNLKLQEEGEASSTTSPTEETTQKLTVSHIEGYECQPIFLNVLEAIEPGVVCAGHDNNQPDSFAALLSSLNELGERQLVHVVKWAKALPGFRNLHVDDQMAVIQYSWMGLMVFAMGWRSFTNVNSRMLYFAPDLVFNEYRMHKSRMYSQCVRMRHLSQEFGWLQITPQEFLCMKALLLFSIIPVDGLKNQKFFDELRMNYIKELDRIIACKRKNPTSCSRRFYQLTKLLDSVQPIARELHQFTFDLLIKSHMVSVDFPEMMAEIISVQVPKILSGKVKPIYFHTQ

D(3) dopamine receptor = D(3) dopamine receptor (Homo sapiens, UniProt P35462)
Sequence of D(3) dopamine receptor (P35462 whole entry): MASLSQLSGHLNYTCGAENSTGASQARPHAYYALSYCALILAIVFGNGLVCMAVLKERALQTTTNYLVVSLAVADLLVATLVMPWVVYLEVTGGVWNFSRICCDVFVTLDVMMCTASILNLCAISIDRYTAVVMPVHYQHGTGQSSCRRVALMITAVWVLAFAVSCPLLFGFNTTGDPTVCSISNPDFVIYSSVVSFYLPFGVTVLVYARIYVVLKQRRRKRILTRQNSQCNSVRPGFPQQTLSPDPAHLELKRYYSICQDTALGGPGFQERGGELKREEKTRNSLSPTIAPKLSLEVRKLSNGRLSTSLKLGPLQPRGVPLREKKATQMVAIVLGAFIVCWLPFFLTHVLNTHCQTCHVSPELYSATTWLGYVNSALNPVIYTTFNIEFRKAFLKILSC

[1] = biological target: T2, Muscarinic acetylcholine receptor M1 (Homo sapiens, UniProt P11229); assay type: functional, cell-based
T2 sequence (P11229 whole entry): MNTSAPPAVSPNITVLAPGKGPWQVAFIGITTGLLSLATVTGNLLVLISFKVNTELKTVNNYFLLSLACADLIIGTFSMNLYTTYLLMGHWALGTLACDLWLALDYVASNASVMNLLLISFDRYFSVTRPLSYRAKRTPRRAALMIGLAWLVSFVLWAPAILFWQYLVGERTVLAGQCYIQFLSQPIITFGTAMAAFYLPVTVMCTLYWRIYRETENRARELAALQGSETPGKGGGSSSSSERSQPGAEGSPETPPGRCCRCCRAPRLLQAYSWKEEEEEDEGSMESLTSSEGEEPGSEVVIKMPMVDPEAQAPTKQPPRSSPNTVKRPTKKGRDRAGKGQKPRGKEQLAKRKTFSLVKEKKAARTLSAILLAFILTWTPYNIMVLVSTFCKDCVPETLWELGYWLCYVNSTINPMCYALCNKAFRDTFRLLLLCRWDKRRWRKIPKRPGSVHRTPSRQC

[2] = biological target: Sodium-dependent noradrenaline transporter (Homo sapiens, UniProt P23975)
Sequence of Sodium-dependent noradrenaline transporter (P23975 whole entry): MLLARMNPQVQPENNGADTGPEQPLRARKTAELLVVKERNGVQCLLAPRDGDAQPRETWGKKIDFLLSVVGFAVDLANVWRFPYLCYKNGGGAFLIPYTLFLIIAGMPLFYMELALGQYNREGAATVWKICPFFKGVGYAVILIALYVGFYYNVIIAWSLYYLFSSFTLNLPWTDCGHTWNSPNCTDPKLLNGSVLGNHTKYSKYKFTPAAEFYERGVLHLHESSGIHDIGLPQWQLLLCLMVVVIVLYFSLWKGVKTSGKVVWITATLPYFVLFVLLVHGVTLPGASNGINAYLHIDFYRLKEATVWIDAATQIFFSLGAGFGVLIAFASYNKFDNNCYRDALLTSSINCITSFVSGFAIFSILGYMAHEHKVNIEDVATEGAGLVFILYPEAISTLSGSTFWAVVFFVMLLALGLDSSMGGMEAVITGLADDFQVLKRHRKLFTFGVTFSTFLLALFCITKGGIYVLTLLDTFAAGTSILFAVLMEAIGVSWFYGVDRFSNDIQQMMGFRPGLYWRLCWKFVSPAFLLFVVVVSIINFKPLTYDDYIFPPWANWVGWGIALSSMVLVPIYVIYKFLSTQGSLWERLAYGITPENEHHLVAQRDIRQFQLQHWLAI

Measured: AC50
Also: assay procedure not described here.

CS(=O)(=O)Nc1cc2occ(NC=O)c(=O)c2cc1Oc1ccccc1 [IGURATIMOD]
> 30 µM: all assays above
